Columns and labels:
[1] = test system: ZR-75-1 cells; test: Cell proliferation assay (3H-thymidine incorporation, 6 days); type: cell-based, human; settings: for cell proliferation (Example 1): six day period
Method: The ZR-75-1 cell line (passage 89) was obtained from the American Type Culture Collection (Rockville, Maryland). The cells were cultured in RPMI-1640 medium containing 10% heat-inactivated fetal calf serum, 200 µM L-glutamine, […], 1.5 U/ml penicillin, and 1.5 µg/ml streptomycin in 5% CO2 at 37°C. The cells were passaged twice weekly.
(§1) Cells were first seeded at initial density of 1x10^5 cells per ml in quadruplicates in 24 multi-well flat bottom plates (Costar). Cells were then allowed to adhere and grow in phenol red-free […] media supplemented with 10 % heat-inactivated fetal calf serum (FCS), 200 µM L-glutamine, 10 mM HEPES, 2.5 U/ml penicillin and 2.5 µg/ml streptomycin in 5% CO2 at 37°C. After 48 hours, four wells were sacrificed and counted to determine plating efficiency. In the remaining wells, medium was removed by aspiration and cells in each well were exposed to the media containing the specified steroid. The controls containing only medium or medium with vehicle were also prepared. In all samples, medium was changed every 48 hours. At the pre-established time-point. Cells were removed by trypsinization and washed. Cell number and viability were determined by trypan blue exclusion using a hemocytometer. Parallel cultures were also run to determine cell proliferation.
(§2) For cell proliferation assays, cell suspensions were prepared by trypsinization of cells from cultures prepared in accord with methods described above. Cell viability was determined by trypan blue exclusion. The cells were then seeded in flat-bottom 96-well microtiter plates at a density of 2X10^3 cells/well and were allowed to rest for 48 hours in order to adhere. Non-adherent dead cells were removed by aspiration. Cells were then grown in media without phenol red. Some of the media contained supplements as indicated above. The active agents or vehicle control were added to the media. The cells were then grown for six days. Media was changed on the samples every 48 hours. On day 6, cells were pulsed with 1 µCi[…] for the last 6 hours of incubation before harvesting onto glass filter using a HPD cell harvester (Cambridge Technology, Watertown, Massachusetts) and counted on a KLB scintillation counter.
(§3) Initial tests were carried out to determine the optimal (maximal) dose of αAED required to inhibit growth of the ZR-75-1 cells in in vitro as determined by tritiated tymidine incorporation. […] To ensure that inhibition was not due to cytotoxicity, cell count and viability were assessed by trypan blue exclusion.
ZR-75-1 cells (2X10^3) were treated as described above over a six day period with differing concentrations of αAED or with vehicle-only cultures. The medium was changed every 48 hours. Cells were pulsed with ^3H-thymidine for the last six hours of incubation.

[2] = test system: ZR-75-1 cells; test: Cell count and viability by trypan blue exclusion; type: cell-based, human
Method: as §1, §3

[3] = test system: P388D1 cells; test: Growth of lymphoid neoplasm cells in the presence of RU486; type: cell-based; settings: RU486 at 0.5 µM and 1.0 µM
Method: as §2
Effect of αAED on growth of lymphoid neoplasm (P388D1 cells obtained from the American Type Culture Collection) in the presence of RU486 at concentration of 0.5 µM and 1.0 µM was studied in accord with the methods described above.

[4] = test system: RAW 264.7; test: Proliferation of macrophage myeloma cells; type: cell-based, murine
Method: as §2
Effects of αAED at doses of 50 ηM and 100 ηM doses on murine macrophage myeloma cells (RAW 264.7, obtained from the American Type Culture Collection) was studied.

Row | Structure (SMILES) | proliferation in the presence of estradiol (Example 3) ([1]; 1 ηM estradiol, higher doses of αAED, 6 day period) | cell proliferation (Example 1) ([1]; 6.25 ηM) | cell proliferation (Example 1) ([1]; 25 ηM) | cell proliferation (Example 1) ([1]; 50 ηM) | maximal dose of anti-proliferative effect ([1]; ZR-75-1 cells, 6 days) | growth of ZR-75-1 cells ([1]; concentration of 25 nM or greater) | proliferation of ZR-75-1 cells compared with the vehicle control ([1]; concentrations between 6.25 and 12.5 ηM (P<0.01)) | effect on the growth of ZR-75-1 cells compared to vehicle control ([1]; doses ranging from 3.13 ηM to 50 ηM, after 6 days) | proliferation of cells in the presence of RU486 (Example 5) ([1]; αAED with 0.5 µM RU486) | proliferation of cells in the presence of βAED (Example 2) ([1]; βAED constant at 2.5 ηM, all concentrations of αAED) | antiproliferative effects in the presence of Flutamide (Example 4) ([1]; ≥6.25 ηM αAED, with Flutamide, 6 day period) | cytotoxicity (cell count and viability) [2] | growth of lymphoid neoplasm in the presence of RU486 (Example 8) [3] | proliferation of murine macrophage myeloma cells (Example 9) ([4]; 50 ηM) | proliferation of murine macrophage myeloma cells (Example 9) ([4]; 100 ηM) | antiproliferative effect on the growth of the ZR-75-1 cells ([1]; alone at 100 ηM)
1 | C[C@]12CC[C@H]3[C@@H](CC=C4C[C@@H](O)CC[C@@]43C)[C@@H]1CC[C@H]2O [αAED, 5-androstene 3β,17α diol] | suppressed proliferation | increasing proliferation | decreasing cell proliferation | marked decrease | 100 ηM | significantly inhibited the growth | stimulated proliferation | biphasic effect | synergistic action to decrease proliferation of cells | decreased proliferation | greatly enhanced | not toxic | increased effectiveness over use of one agent | significant inhibition of proliferation | significant inhibition of proliferation | 
2 | C[C@]12CC[C@H]3[C@@H](CC=C4C[C@@H](O)CC[C@@]43C)[C@@H]1CC[C@@H]2O [βAED, 5-androstene 3β,17β diol, reference compound] |  |  |  |  |  |  |  |  |  |  |  |  |  |  |  | did not have any antiproliferative effect
